# Read-outs that look alike come from different tables or passages of the source.
# Target: T1, BRM (Homo sapiens, UniProt P51531)
# T1 construct: In-Cell Western Screen of BRM Degradation in SW1573 Cells; endogenous in cells; host or cells: SW1573
# Assay: In-cell Western screen of BRM degradation in SW1573 cells (Dmax and DC50)
# Type: cell-based
# In short: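 Adherent SW1573 cultures exposed to test compounds for 18-20 h were processed for in-cell Western after PFA fixation and detergent permeabilization. BRM degradation was reported as Dmax and DC50.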
# [1] = BRM degradation, SW1573 cells, read-out: DC50
# [2] = degradation of BRM, read-out: BRM DC50
# [3] = SW1573, % degraded, when tested at the top concentration of between 0.3 and 10 μM, read-out: BRM Dmax (%)
# T1 sequence (P51531 whole entry): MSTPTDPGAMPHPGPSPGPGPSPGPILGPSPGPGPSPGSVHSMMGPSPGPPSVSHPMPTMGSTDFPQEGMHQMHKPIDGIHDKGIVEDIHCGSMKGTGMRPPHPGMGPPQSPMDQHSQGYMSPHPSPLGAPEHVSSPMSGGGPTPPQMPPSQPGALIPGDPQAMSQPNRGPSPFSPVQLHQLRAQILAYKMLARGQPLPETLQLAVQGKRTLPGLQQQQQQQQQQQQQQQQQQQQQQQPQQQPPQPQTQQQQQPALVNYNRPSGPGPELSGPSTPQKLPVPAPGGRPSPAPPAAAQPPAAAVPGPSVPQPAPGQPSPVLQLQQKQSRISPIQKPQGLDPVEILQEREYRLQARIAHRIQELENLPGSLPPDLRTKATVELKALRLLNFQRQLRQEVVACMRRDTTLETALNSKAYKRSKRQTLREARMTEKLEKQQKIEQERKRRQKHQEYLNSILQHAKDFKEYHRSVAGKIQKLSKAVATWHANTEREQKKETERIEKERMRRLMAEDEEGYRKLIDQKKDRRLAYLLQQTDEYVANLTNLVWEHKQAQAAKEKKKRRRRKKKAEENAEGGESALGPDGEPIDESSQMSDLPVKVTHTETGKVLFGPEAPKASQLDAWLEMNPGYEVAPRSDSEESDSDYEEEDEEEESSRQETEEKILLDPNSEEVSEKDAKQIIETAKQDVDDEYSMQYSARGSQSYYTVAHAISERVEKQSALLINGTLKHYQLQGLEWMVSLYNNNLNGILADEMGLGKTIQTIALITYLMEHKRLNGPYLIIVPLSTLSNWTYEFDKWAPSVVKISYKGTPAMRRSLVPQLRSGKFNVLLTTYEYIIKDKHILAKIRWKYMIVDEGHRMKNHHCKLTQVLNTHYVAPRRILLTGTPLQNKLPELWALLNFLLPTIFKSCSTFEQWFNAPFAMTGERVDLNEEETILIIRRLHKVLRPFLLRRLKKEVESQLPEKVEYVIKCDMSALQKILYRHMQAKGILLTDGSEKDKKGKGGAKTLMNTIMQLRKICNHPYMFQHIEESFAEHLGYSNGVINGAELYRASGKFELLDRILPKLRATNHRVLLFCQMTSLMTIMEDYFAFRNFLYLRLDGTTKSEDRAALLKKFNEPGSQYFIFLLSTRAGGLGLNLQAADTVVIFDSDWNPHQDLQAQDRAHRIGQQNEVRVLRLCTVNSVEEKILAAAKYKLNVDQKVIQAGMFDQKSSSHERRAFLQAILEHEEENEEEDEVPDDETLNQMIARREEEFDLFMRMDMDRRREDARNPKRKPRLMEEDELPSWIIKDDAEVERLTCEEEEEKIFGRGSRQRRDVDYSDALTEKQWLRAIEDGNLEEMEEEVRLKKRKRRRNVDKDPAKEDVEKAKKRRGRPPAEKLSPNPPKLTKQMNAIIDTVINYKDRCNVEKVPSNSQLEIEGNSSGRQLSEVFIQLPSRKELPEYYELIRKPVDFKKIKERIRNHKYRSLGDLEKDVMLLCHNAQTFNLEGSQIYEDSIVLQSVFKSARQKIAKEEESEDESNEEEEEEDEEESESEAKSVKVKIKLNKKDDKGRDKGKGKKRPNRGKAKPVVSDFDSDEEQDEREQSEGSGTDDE
SMILES,DC50 [1] [nM],DC50 [2] [nM],further results
"Cc1ncsc1-c1ccc([C@H](CN(C)C)NC(=O)[C@@H]2C[C@@H](O)CN2C(=O)[C@H](c2cc(OCCN3CCN(CCOc4cc(N5C6CCC5CN(c5cc(-c7ccccc7O)nnc5N)C6)ccn4)CC3)no2)C(C)C)cc1 [compound 280, (2S,4R)-1-((2S)-2-(3-(2-(4-(2-((4-(3-(3-amino-6-(2-hydroxyphenyl)pyridazin-4-yl)-3,8-diazabicyclo[3.2.1]octan-8-yl)pyridin-2-yl)oxy)ethyl)piperazin-1-yl)ethoxy)isoxazol-5-yl)-3-methylbutanoyl)-N-((R)-2-(dimethylamino)-1-(4-(4-methylthiazol-5-yl)phenyl)ethyl)-4-hydroxypyrrolidine-2-carboxamide]",> 30,,
"CC(C)[C@H](C(=O)N1C[C@H](O)C[C@H]1C(=O)N[C@@H](C)c1ccc(C2CC2(F)F)cc1)c1cc(OCCN2CCC(O[C@H]3C[C@H](Oc4cc(N5C6CCC5CN(c5cc(-c7ccccc7O)nnc5N)C6)ccn4)C3)CC2)no1 (stereo partly drawn) [compound 438, (2S,4R)-1-((2S)-2-(3-(2-(4-((1r,3S)-3-((4-(3-(3-amino-6-(2-hydroxyphenyl)pyridazin-4-yl)-3,8-diazabicyclo[3.2.1]octan-8-yl)pyridin-2-yl)oxy)cyclobutoxy)piperidin-1-yl)ethoxy)isoxazol-5-yl)-3-methylbutanoyl)-N-((1S)-1-(4-(2,2-difluorocyclopropyl)phenyl)ethyl)-4-hydroxypyrrolidine-2-carboxamide]",,> 30,
"Cc1ncsc1-c1ccc([C@H](C)NC(=O)[C@@H]2C[C@@H](O)CN2C(=O)[C@H](c2cc(OCCC3CCN([C@H]4C[C@H](CN5CCOC6(CCN(c7cc(-c8ccccc8O)nnc7N)CC6)C5)C4)CC3)no2)C(C)C)cc1 [compound 444, (2S,4R)-1-((S)-2-(3-(2-(1-((1r,3S)-3-((9-(3-amino-6-(2-hydroxyphenyl)pyridazin-4-yl)-1-oxa-4,9-diazaspiro[5.5]undecan-4-yl)methyl)cyclobutyl)piperidin-4-yl)ethoxy)isoxazol-5-yl)-3-methylbutanoyl)-4-hydroxy-N-((S)-1-(4-(4-methylthiazol-5-yl)phenyl)ethyl)pyrrolidine-2-carboxamide]",,< 2.5,Dmax [3]: > 75%
"Cc1cc([C@H](C(=O)N2C[C@H](O)C[C@H]2C(=O)N[C@H](COCCOCCNc2ccc(-c3ccccc3O)nn2)c2ccc(-c3scnc3C)cc2)C(C)C)on1 [compound 524, (2S,4R)-4-hydroxy-N-((S)-2-(2-(2-((6-(2-hydroxyphenyl)pyridazin-3-yl)amino)ethoxy)ethoxy)-1-(4-(4-methylthiazol-5-yl)phenyl)ethyl)-1-((R)-3-methyl-2-(3-methylisoxazol-5-yl)butanoyl)pyrrolidine-2-carboxamide]",,,"DC50 (BRM degradation, read-out: BRM DC50): > 30 nM"
"Cc1ncsc1-c1ccc(CNC(=O)[C@@H]2C[C@@H](O)CN2C(=O)[C@H](c2cc(OCCOCCOCCOCCn3cc(-c4cc(-c5ccccc5O)nnc4N)cn3)no2)C(C)C)cc1 [compound 16, (2S,4R)-1-((S)-2-(3-(2-(2-(2-(2-(4-(3-amino-6-(2-hydroxyphenyl)pyridazin-4-yl)-1H-pyrazol-1-yl)ethoxy)ethoxy)ethoxy)ethoxy)isoxazol-5-yl)-3-methylbutanoyl)-4-hydroxy-N-(4-(4-methylthiazol-5-yl)benzyl)pyrrolidine-2-carboxamide]",> 30,,"Dmax (BRM degradation, SW1573 cells, when tested at the top concentration of between 0.3 and 10 μM, read-out: Dmax (%) (% degraded)): 50 to 75%"
"Cc1nccn1-c1ccc([C@@H](C)NC(=O)[C@H]2C[C@H](O)CN2C(=O)[C@@H](c2cc(N3CCN(CC4CCN(C[C@H]5C[C@H](Oc6cc(N7C8CCC7CN(c7cc(-c9ccccc9O)nnc7N)C8)ccn6)C5)CC4)CC3)no2)C(C)C)cc1 (racemic) [compound 447, rac-(2R,4S)-1-((2R)-2-(3-(4-((1-(((1r,3r)-3-((4-(3-(3-amino-6-(2-hydroxyphenyl)pyridazin-4-yl)-3,8-diazabicyclo[3.2.1]octan-8-yl)pyridin-2-yl)oxy)cyclobutyl)methyl)piperidin-4-yl)methyl)piperazin-1-yl)isoxazol-5-yl)-3-methylbutanoyl)-4-hydroxy-N-((R)-1-(4-(2-methyl-1H-imidazol-1-yl)phenyl)ethyl)pyrrolidine-2-carboxamide]",,> 30,
"Cc1ncoc1-c1ccc([C@H](C)NC(=O)[C@@H]2C[C@@H](O)CN2C(=O)[C@H](c2cc(OCCN3CCN(CCOc4cc(N5C6CCC5CN(c5cc(-c7ccccc7O)nnc5N)C6)ccn4)CC3)no2)C(C)C)cc1 [compound 299, (2S,4R)-1-((2S)-2-(3-(2-(4-(2-((4-(3-(3-amino-6-(2-hydroxyphenyl)pyridazin-4-yl)-3,8-diazabicyclo[3.2.1]octan-8-yl)pyridin-2-yl)oxy)ethyl)piperazin-1-yl)ethoxy)isoxazol-5-yl)-3-methylbutanoyl)-4-hydroxy-N-((S)-1-(4-(4-methyloxazol-5-yl)phenyl)ethyl)pyrrolidine-2-carboxamide]",> 30,,
"Cc1ncsc1-c1ccc([C@H](C)NC(=O)[C@@H]2C[C@@H](O)CN2C(=O)[C@@H](c2cc(OCCN3CCC(N4CC(Oc5cc(N6C7CCC6CN(c6cc(-c8ccccc8O)nnc6N)C7)ccn5)C4)CC3)no2)C(C)C)cc1 [compound 374, (2S,4R)-1-((2R)-2-(3-(2-(4-(3-((4-(3-(3-amino-6-(2-hydroxyphenyl)pyridazin-4-yl)-3,8-diazabicyclo[3.2.1]octan-8-yl)pyridin-2-yl)oxy)azetidin-1-yl)piperidin-1-yl)ethoxy)isoxazol-5-yl)-3-methylbutanoyl)-4-hydroxy-N-((S)-1-(4-(4-methylthiazol-5-yl)phenyl)ethyl)pyrrolidine-2-carboxamide]",,,"Dmax [3]: > 75%; DC50 (target protein degradation, read-out: BRM DC50): > 30 nM"
"Cc1ncsc1-c1ccc([C@H](C)NC(=O)[C@@H]2C[C@@H](O)CN2C(=O)[C@@H](c2cc(OCCN3CCC(O[C@H]4C[C@H](Oc5cc(N6C7CCC6CN(c6cc(-c8ccccc8O)nnc6N)C7)ccn5)C4)CC3)no2)C(C)C)cn1 [compound 180, (2S,4R)-1-((2R)-2-(3-(2-(4-((1r,3R)-3-((4-(3-(3-amino-6-(2-hydroxyphenyl)pyridazin-4-yl)-3,8-diazabicyclo[3.2.1]octan-8-yl)pyridin-2-yl)oxy)cyclobutoxy)piperidin-1-yl)ethoxy)isoxazol-5-yl)-3-methylbutanoyl)-4-hydroxy-N-((S)-1-(6-(4-methylthiazol-5-yl)pyridin-3-yl)ethyl)pyrrolidine-2-carboxamide]",< 2.5,,"Dmax (BRM degradation, SW1573 cells, tested at the top concentration of between 0.3 and 10 μM, read-out: Dmax (%) (% degraded)): > 75%"
"Cc1ncsc1-c1ccc([C@H](C)NC(=O)[C@@H]2C[C@@H](O)CN2C(=O)[C@H](c2cc(N3CCC4(CC3)CN(C[C@H]3C[C@H](Oc5cc(N6C7CCC6CN(c6cc(-c8ccccc8O)nnc6N)C7)ccn5)C3)CCO4)no2)C(C)C)cc1 [compound 623, (2S,4R)-1-((2S)-2-(3-(4-(((1r,3S)-3-((4-(3-(3-amino-6-(2-hydroxyphenyl)pyridazin-4-yl)-3,8-diazabicyclo[3.2.1]octan-8-yl)pyridin-2-yl)oxy)cyclobutyl)methyl)-1-oxa-4,9-diazaspiro[5.5]undecan-9-yl)isoxazol-5-yl)-3-methylbutanoyl)-4-hydroxy-N-((S)-1-(4-(4-methylthiazol-5-yl)phenyl)ethyl)pyrrolidine-2-carboxamide]",,,"DC50 (BRM degradation, SW1573 cells, Table 2D, read-out: *DC50): > 30 nM"
